Measurements: patent US4542018A, “Teichomycin A2 pure single factors 1, 2, 3, 4 and 5 and method for their production” (Gruppo Lepetit S.p.A., priority 1982, dated 1985)

Columns and labels:
Staphylococcus aureus = experiment: In vitro antibacterial activity (MIC), two-fold dilution in microtiter system; format: cell-based; conditions: 5 tested strains, clinical isolates, Penassay broth, 18-24 h at 37° C.
Procedure: (§1) Penassay broth (Difco) and Todd-Hewitt broth (Difco) were used for staphylococci and streptococci respectively. Overnight broth cultures were diluted so that the final inoculum was about 10^3 colony forming units/ml.

[1] = test system: Staphylococcus epidermidis; experiment: as above; format: cell-based; conditions: 4 tested strains, clinical isolates, Penassay broth, 18-24 h at 37° C.
Procedure: as §1

Streptococcus agalactiae = experiment: as above; format: cell-based; conditions: 1 tested strain, clinical isolate, Todd-Hewitt broth, 18-24 h at 37° C.
Procedure: as §1

Streptococcus bovis = experiment: as above; format: cell-based; conditions: 1 tested strain, clinical isolate, Todd-Hewitt broth, 18-24 h at 37° C.
Procedure: as §1

Streptococcus faecalis = experiment: as above; format: cell-based; conditions: 5 tested strains, clinical isolates, Todd-Hewitt broth, 18-24 h at 37° C.
Procedure: as §1

Streptococcus mitis = experiment: as above; format: cell-based; conditions: 1 tested strain, clinical isolate, Todd-Hewitt broth, 18-24 h at 37° C.
Procedure: as §1

Streptococcus pneumoniae = experiment: as above; format: cell-based; conditions: 6 tested strains, clinical isolates, Todd-Hewitt broth, 18-24 h at 37° C.
Procedure: as §1

Streptococcus pyogenes = experiment: as above; format: cell-based; conditions: 7 tested strains, clinical isolates, Todd-Hewitt broth, 18-24 h at 37° C.
Procedure: as §1

Streptococcus salivarius = experiment: as above; format: cell-based; conditions: 1 tested strain, clinical isolate, Todd-Hewitt broth, 18-24 h at 37° C.
Procedure: as §1

Streptococcus sanguis = experiment: as above; format: cell-based; conditions: 1 tested strain, clinical isolate, Todd-Hewitt broth, 18-24 h at 37° C.
Procedure: as §1

S. aureus ATCC 6538 = experiment: Microbiological potency by agar diffusion method, Teichomycin A2 complex as standard; format: cell-based; conditions: 2.5-20 μg/ml, 37° C., 18 hours
Procedure: In particular an adeguate amount of Teichomycin A2 factor 1, Teichomycin A2 factor 2, Teichomycin A2 factor 3, Teichomycin A2 factor 4, Teichomycin A2 factor 5 and Teichomycin A2 complex used as the standard is dissolved in dimethylformamide at a concentration of 2000 μg/ml. These solutions are further diluted using phosphate buffer 0.067 M pH 7.4 supplemented with 1% bovine serum in order to provide the following concentrations: 2.5, 5, 10, and 20 μg/ml.
Filter paper discs are then soaked into the sample solutions and placed at regular intervals on the surface of agar plates seeded with a suspension of the test microorganism. The plates are incubated at 37° C. for 18 hours and then the diameter of the inhibition zones are measured. The data obtained are fed into a computer to calculate the potency of the individual factors relative to the complex.

Solubility = format: physicochemical; conditions: for solubility in water: water at pH>7.0 or at pH<2
Gram-positive bacteria = experiment: In vitro antibacterial spectrum; format: cell-based
Procedure: as §1

S. pneumoniae L 44 = experiment: In vivo antibacterial activity, experimental infection in mice; conditions: s.c.
Procedure: (§2) Teichomycin A2 factors 2,3,4 and 5 were tested in the experimental infections caused by S. pneumoniae and by S. pyogenes in mice. The experiments were carried out in comparison with Teichomycin A2 complex.

S. pyogenes L 49 = experiment: as above; conditions: s.c.
Procedure: as §2

Compound	M.I.C. (Staphylococcus aureus)	M.I.C. [1]	M.I.C. (Streptococcus agalactiae)	M.I.C. (Streptococcus bovis)	M.I.C. (Streptococcus faecalis)	M.I.C. (Streptococcus mitis)	M.I.C. (Streptococcus pneumoniae)	M.I.C. (Streptococcus pyogenes)	M.I.C. (Streptococcus salivarius)	M.I.C. (Streptococcus sanguis)	microbiological potency relative to the complex (S. aureus ATCC 6538)	solubility in chloroform, benzene, n-hexane, acetonitrile, ethyl ether, acetone, ethyl acetate, carbon tetrachloride (Solubility)	solubility in dimethylformamide, dimethylsulfoxide and propyleneglycol (Solubility)	solubility in methanol and ethanol (Solubility)	solubility in methylcellosolve and glycerol (Solubility)	solubility in water (Solubility)	in vitro antibacterial activity (spectrum) (Gram-positive bacteria)	ED50 (S. pneumoniae L 44)	ED50 (S. pyogenes L 49)
CCC(C)CCCCCCC(=O)N[C@H]1[C@H](Oc2c3cc4cc2Oc2ccc(cc2Cl)[C@@H](O[C@@H]2O[C@H](CO)[C@@H](O)[C@H](O)[C@H]2NC(C)=O)[C@@H]2NC(=O)[C@H](NC(=O)[C@@H]4NC(=O)[C@H]4NC(=O)[C@@H](Cc5ccc(c(Cl)c5)O3)NC(=O)[C@H](N)c3ccc(O)c(c3)Oc3cc(O)cc4c3)c3ccc(O)c(c3)-c3c(O[C@H]4O[C@H](CO)[C@@H](O)[C@H](O)[C@@H]4O)cc(O)cc3[C@@H](C(=O)O)NC2=O)O[C@H](CO)[C@@H](O)[C@@H]1O (stereo partly shown) [Teichomycin A2 factor 4]	0.2 to 0.8 µg/mL	0.2 to 0.8 µg/mL	0.1 µg/mL	0.4 µg/mL	0.1 to 0.4 µg/mL	0.025 µg/mL	0.05 to 0.1 µg/mL	0.006 to 0.05 µg/mL	0.05 µg/mL	0.05 µg/mL	1066 U/mg	almost insoluble	freely soluble	poorly soluble	slightly soluble	freely soluble	mainly active against Gram-positive bacteria	–	–
CCCCC/C=C\CCC(=O)N[C@H]1[C@H](Oc2c3cc4cc2Oc2ccc(cc2Cl)[C@@H](O[C@@H]2O[C@H](CO)[C@@H](O)[C@H](O)[C@H]2NC(C)=O)[C@@H]2NC(=O)[C@H](NC(=O)[C@@H]4NC(=O)[C@H]4NC(=O)[C@@H](Cc5ccc(c(Cl)c5)O3)NC(=O)[C@H](N)c3ccc(O)c(c3)Oc3cc(O)cc4c3)c3ccc(O)c(c3)-c3c(O[C@H]4O[C@H](CO)[C@@H](O)[C@H](O)[C@@H]4O)cc(O)cc3[C@@H](C(=O)O)NC2=O)O[C@H](CO)[C@@H](O)[C@@H]1O [Teichomycin A2 factor 1]	0.8 to 1.6 µg/mL	0.2 to 1.6 µg/mL	0.1 µg/mL	0.4 µg/mL	0.2 to 0.4 µg/mL	0.025 µg/mL	0.1 to 0.2 µg/mL	0.05 to 0.1 µg/mL	0.2 µg/mL	0.1 µg/mL	841 U/mg	almost insoluble	freely soluble	poorly soluble	slightly soluble	freely soluble	mainly active against Gram-positive bacteria	–	–
CCCCCCCCCC(=O)N[C@H]1[C@H](Oc2c3cc4cc2Oc2ccc(cc2Cl)[C@@H](O[C@@H]2O[C@H](CO)[C@@H](O)[C@H](O)[C@H]2NC(C)=O)[C@@H]2NC(=O)[C@H](NC(=O)[C@@H]4NC(=O)[C@H]4NC(=O)[C@H](Cc5ccc(c(Cl)c5)O3)NC(=O)[C@H](N)c3ccc(O)c(c3)Oc3cc(O)cc4c3)c3ccc(O)c(c3)-c3c(O[C@H]4O[C@H](CO)[C@@H](O)[C@H](O)[C@@H]4O)cc(O)cc3[C@@H](C(=O)O)NC2=O)O[C@H](CO)[C@@H](O)[C@@H]1O [Teichomycin A2 factor 3]	0.4 to 0.8 µg/mL	0.2 to 0.8 µg/mL	0.05 µg/mL	0.2 µg/mL	0.1 to 0.2 µg/mL	0.0125 µg/mL	0.05 to 0.1 µg/mL	0.025 to 0.05 µg/mL	0.1 µg/mL	0.1 µg/mL	1131 U/mg	almost insoluble	freely soluble	poorly soluble	slightly soluble	freely soluble	mainly active against Gram-positive bacteria	0.27 (0.23-0.32) mg/kg/day	0.13 (0.11-0.16) mg/kg/day
CC(=O)N[C@H]1[C@H](O[C@@H]2c3ccc(c(Cl)c3)Oc3cc4cc(c3O[C@@H]3O[C@H](CO)[C@@H](O)[C@H](O)[C@H]3NC(=O)CCCCCCC(C)C)Oc3ccc(cc3Cl)C[C@H]3NC(=O)[C@H](N)c5ccc(O)c(c5)Oc5cc(O)cc(c5)[C@H](NC3=O)C(=O)N[C@H]4C(=O)N[C@H]3C(=O)N[C@@H]2C(=O)N[C@H](C(=O)O)c2cc(O)cc(O[C@H]4O[C@H](CO)[C@@H](O)[C@H](O)[C@@H]4O)c2-c2cc3ccc2O)O[C@H](CO)[C@@H](O)[C@@H]1O [Teichomycin A2 factor 2]	0.8 to 1.6 µg/mL	0.1 to 1.6 µg/mL	0.1 µg/mL	0.4 µg/mL	0.1 to 0.4 µg/mL	0.025 µg/mL	0.05 to 0.1 µg/mL	0.025 to 0.1 µg/mL	0.2 µg/mL	0.1 µg/mL	1086 U/mg	almost insoluble	freely soluble	poorly soluble	slightly soluble	freely soluble	mainly active against Gram-positive bacteria	0.28 (0.22-0.34) mg/kg/day	0.15 (0.13-0.18) mg/kg/day
CC(=O)N[C@H]1[C@H](O[C@@H]2c3ccc(c(Cl)c3)Oc3cc4cc(c3O[C@@H]3O[C@H](CO)[C@@H](O)[C@H](O)[C@H]3NC(=O)CCCCCCCC(C)C)Oc3ccc(cc3Cl)C[C@H]3NC(=O)[C@H](N)c5ccc(O)c(c5)Oc5cc(O)cc(c5)[C@H](NC3=O)C(=O)N[C@H]4C(=O)N[C@H]3C(=O)N[C@@H]2C(=O)N[C@H](C(=O)O)c2cc(O)cc(O[C@H]4O[C@H](CO)[C@@H](O)[C@H](O)[C@@H]4O)c2-c2cc3ccc2O)O[C@H](CO)[C@@H](O)[C@@H]1O [Teichomycin A2 factor 5]	0.2 to 0.8 µg/mL	0.2 to 0.8 µg/mL	0.1 µg/mL	0.4 µg/mL	0.1 to 0.4 µg/mL	0.025 µg/mL	0.05 to 0.1 µg/mL	0.006 to 0.05 µg/mL	0.05 µg/mL	0.05 µg/mL	954 U/mg	almost insoluble	freely soluble	poorly soluble	slightly soluble	freely soluble	mainly active against Gram-positive bacteria	0.13 (0.10-0.15) mg/kg/day	0.10 (0.098-0.13) mg/kg/day
